This experiment deals with T1, recombinant human ALK enzyme (ALK WT) (Homo sapiens, UniProt Q9UM73).
T1 construct: purchased Carna Biosciences 08-518
Description: ALK WT cell free enzymatic assay (TR-FRET). It is filed as biochemical. To be noted: 1 μM ATP; for IC50: 10 point dose response; for inhibition at 0.1 µM: compound at 100 nM; for inhibition at 0.1 µM / inhibition at 1 µM: 30 min pre-incubation; for inhibition at 1 µM: compound at 1 μM. In outline:
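Recombinant human ALK with 40 nM Ultra Light Poly GT, 1 μM ATP and Eu anti-phosphotyrosine antibody, 1% DMSO, pH 7.1 HEPES; 30 min enzyme-compound pre-incubation, then 30 min reaction. TR-FRET 665/615 ratio; percent inhibition at 100 nM and 1 μM, IC50 from 10-point sigmoidal fit.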
On the technique in general: In TR-FRET formats the signal depends on donor and acceptor labels being close together.

Counter-ions that a name gives are not always drawn.

T1 sequence (Q9UM73 1058-1620 limits assumed): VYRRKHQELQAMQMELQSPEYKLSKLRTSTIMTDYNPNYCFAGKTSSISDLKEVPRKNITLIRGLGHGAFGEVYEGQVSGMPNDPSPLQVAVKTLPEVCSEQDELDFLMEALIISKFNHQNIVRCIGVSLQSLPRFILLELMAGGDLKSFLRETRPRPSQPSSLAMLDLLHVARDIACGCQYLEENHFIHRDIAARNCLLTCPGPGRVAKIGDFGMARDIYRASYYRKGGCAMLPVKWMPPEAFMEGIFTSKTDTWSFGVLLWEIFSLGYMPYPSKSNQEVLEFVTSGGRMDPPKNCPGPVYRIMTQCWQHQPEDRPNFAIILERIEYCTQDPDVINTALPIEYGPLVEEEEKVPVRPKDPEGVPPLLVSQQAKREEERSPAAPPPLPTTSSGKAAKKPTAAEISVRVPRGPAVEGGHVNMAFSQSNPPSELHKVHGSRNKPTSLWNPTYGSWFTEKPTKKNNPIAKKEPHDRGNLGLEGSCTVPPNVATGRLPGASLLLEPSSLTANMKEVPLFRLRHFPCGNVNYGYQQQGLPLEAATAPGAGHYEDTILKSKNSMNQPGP

In the case of `c1cncc(Cn2cc(-c3c[nH]c4ncc(-c5ccc(C6CCNCC6)cc5)cc34)cn2)c1` [Example 89, 5-(4-(piperidin-4-yl)phenyl)-3-(1-(pyridin-3-ylmethyl)-1H-pyrazol-4-yl)-1H-pyrrolo[2,3-b]pyridine], the half-inhibitory concentration (IC50) is under 50 nM, the inhibition at 0.1 µM worked out at 84% and the inhibition at 1 µM was found to be 98%.
For `O=C(C1CC1)N1CCN(c2ccc(-c3cnc4[nH]cc(-c5cnn(Cc6cccc(F)c6)c5)c4c3)cn2)CC1` [Example 157, Cyclopropyl(4-(5-(3-(1-(3-fluorobenzyl)-1H-pyrazol-4-yl)-1H-pyrrolo[2,3-b]pyridin-5-yl)pyridin-2-yl)piperazin-1-yl)methanone], in that order: under 50 nM, 77% and 93%.
For `COc1cc(-c2cnc3[nH]cc(-c4c(C)nn(Cc5cccc(F)c5)c4C)c3c2)ccc1N1CCNCC1` [Example 62, 3-(1-(3-fluorobenzyl)-3,5-dimethyl-1H-pyrazol-4-yl)-5-(3-methoxy-4-(piperazin-1-yl)phenyl)-1H-pyrrolo[2,3-b]pyridine hydrochloride] the same measures were under 50 nM, 87% and 100%.
For `OCCN1CCN(c2ccc(-c3cnc4[nH]cc(-c5cnn(Cc6cccc(F)c6)c5)c4c3)cc2)CC1` [Example 126, 2-(4-(4-(3-(1-(3-fluorobenzyl)-1H-pyrazol-4-yl)-1H-pyrrolo[2,3-b]pyridin-5-yl)phenyl)piperazin-1-yl)ethanol], the IC50 is under 50 nM, the inhibition at 0.1 µM amounted to 95% and the inhibition at 1 µM is 97%.
For `Cc1nn(Cc2cccc(F)c2)c(C)c1-c1c[nH]c2ncc(-c3cccc(N4CCN(CCO)CC4)c3)cc12` [Example 186, 2-(4-(3-(3-(1-(3-fluorobenzyl)-3,5-dimethyl-1H-pyrazol-4-yl)-1H-pyrrolo[2,3-b]pyridin-5-yl)phenyl)piperazin-1-yl)ethanol] the same measures were under 50 nM, 83% and 96%.
For `CN1CCN(c2ncc(-c3cnc4[nH]cc(-c5cnn(Cc6cccc(F)c6)c5)c4c3)cc2F)CC1` [Example 179, 5-(5-fluoro-6-(4-methylpiperazin-1-yl)pyridin-3-yl)-3-(1-(3-fluorobenzyl)-1H-pyrazol-4-yl)-1H-pyrrolo[2,3-b]pyridine], in that order: under 50 nM, 92% and 99%.
With `COc1ccc(-c2cc3c(-c4c(C)nn(Cc5cc(F)cc(F)c5)c4C)c[nH]c3nc2C2CC2)cc1NS(C)(=O)=O` [Example 27, N-(5-(6-cyclopropyl-3-(1-(3,5-difluorobenzyl)-3,5-dimethyl-1H-pyrazol-4-yl)-1H-pyrrolo[2,3-b]pyridin-5-yl)-2-methoxyphenyl)methanesulfonamide], the inhibition at 0.1 µM worked out at 9% and the inhibition at 1 µM is 8%.
On to `COc1cc(-c2cnc3[nH]cc(-c4cnn(Cc5cc(F)cc(F)c5)c4)c3c2)ccc1NS(C)(=O)=O` [Example 73, N-(4-(3-(1-(3,5-difluorobenzyl)-1H-pyrazol-4-yl)-1H-pyrrolo[2,3-b]pyridin-5-yl)-2-methoxyphenyl)methanesulfonamide], for which the IC50 is under 50 nM, the inhibition at 0.1 µM was determined as 92% and the inhibition at 1 µM came to 97%.
For `Cc1nn(Cc2cccc(F)c2)cc1-c1c[nH]c2ncc(-c3ccc(C4CCNCC4)c(F)c3)cc12` [Example 166, 5-(3-fluoro-4-(piperidin-4-yl)phenyl)-3-(1-(3-fluorobenzyl)-3-methyl-1H-pyrazol-4-yl)-1H-pyrrolo[2,3-b]pyridine], in that order: under 50 nM, 90% and 98%.
For `Cc1nn(Cc2cccc(F)c2)cc1-c1c[nH]c2ncc(-c3cccc(N4CCNCC4)c3)cc12` [Example 37, 3-(1-(3-fluorobenzyl)-3-methyl-1H-pyrazol-4-yl)-5-(3-(piperazin-1-yl)phenyl)-1H-pyrrolo[2,3-b]pyridine], in that order: under 50 nM, 93% and 98%.
As to `Fc1cccc(Cn2cc(-c3c[nH]c4ncc(-c5ccc(N6CCNCC6)c(F)c5)cc34)cn2)c1` [Example 172, 5-(3-fluoro-4-(piperazin-1-yl)phenyl)-3-(1-(3-fluorobenzyl)-1H-pyrazol-4-yl)-1H-pyrrolo[2,3-b]pyridine], the IC50 is under 50 nM, the inhibition at 0.1 µM was determined as 99% and the inhibition at 1 µM amounted to 100%.
For `CNS(=O)(=O)c1cc(-c2cnc3[nH]cc(-c4c(C)nn(Cc5cccc(F)c5)c4C)c3c2)ccc1OC` [Example 18, 5-(3-(1-(3-fluorobenzyl)-3,5-dimethyl-1H-pyrazol-4-yl)-1H-pyrrolo[2,3-b]pyridin-5-yl)-2-methoxy-N-methylbenzenesulfonamide] the same measures were 50 to 250 nM, 62% and 94%.
As to `NC(=O)N1CCN(c2ccc(-c3cnc4[nH]cc(-c5cnn(Cc6cccc(F)c6)c5)c4c3)cc2)CC1` [Example 108, 4-(4-(3-(1-(3-fluorobenzyl)-1H-pyrazol-4-yl)-1H-pyrrolo[2,3-b]pyridin-5-yl)phenyl)piperazine-1-carboxamide], the IC50 was under 50 nM, the inhibition at 0.1 µM amounted to 97% and the inhibition at 1 µM is 100%.
For `Fc1cc(-c2cnc3[nH]cc(-c4ccn(CCc5ccccc5)n4)c3c2)ccc1C1CCNCC1` [Example 168, 5-(3-fluoro-4-(piperidin-4-yl)phenyl)-3-(1-phenethyl-1H-pyrazol-3-yl)-1H-pyrrolo[2,3-b]pyridine] the same measures were over 250 nM, 23% and 71%.
For `CS(=O)(=O)Nc1cccc(-c2cnc3[nH]cc(-c4cnn(Cc5cccc(N)c5)c4)c3c2)c1` [Example 8, N-(3-(3-(1-(3-aminobenzyl)-1H-pyrazol-4-yl)-1H-pyrrolo[2,3-b]pyridin-5-yl)phenyl) methane sulfonamide], in that order: under 50 nM, 81% and 97%.
For `Fc1ccc(F)c(Cn2cc(-c3c[nH]c4ncc(-c5cccc(N6CCNCC6)c5)cc34)cn2)c1` [Example 32, 3-(1-(2,5-difluorobenzyl)-1H-pyrazol-4-yl)-5-(3-(piperazin-1-yl)phenyl)-1H-pyrrolo[2,3-b]pyridine], the IC50 was under 50 nM and the inhibition at 1 µM was 99%.
Consider `COc1ccc(-c2cnc3[nH]cc(-c4c(C)nn(Cc5cc(F)cc(F)c5)c4C)c3c2)cc1NS(C)(=O)=O` [Example 19], for which the IC50 was in the range of 50 to 250 nM, the inhibition at 0.1 µM is 63% and the inhibition at 1 µM amounted to 96%.
For `Cc1nn(Cc2cccc(F)c2)cc1-c1c[nH]c2ncc(-c3ccc(N4CCN(C[C@H](C)O)CC4)cc3)cc12` [Example 130, (S)-1-(4-(4-(3-(1-(3-fluorobenzyl)-3-methyl-1H-pyrazol-4-yl)-1H-pyrrolo[2,3-b]pyridin-5-yl)phenyl)piperazin-1-yl)propan-2-ol] the same measures were under 50 nM, 88% and 99%.
For `CN1CCN(c2ccc(-c3cnc4[nH]cc(-c5cnn(Cc6cc(F)cc(F)c6)c5)c4c3)cn2)CC1` [Example 133, 3-(1-(3,5-difluorobenzyl)-1H-pyrazol-4-yl)-5-(6-(4-methylpiperazin-1-yl)pyridin-3-yl)-1H-pyrrolo[2,3-b]pyridine], in that order: under 50 nM, 97% and 100%.
For `Cc1nn(Cc2cccc(F)c2)c(C)c1-c1c[nH]c2ncc(-c3ccc(OCCO)c(NS(C)(=O)=O)c3)cc12` [Example 24, N-(5-(3-(1-(3-fluorobenzyl)-3,5-dimethyl-1H-pyrazol-4-yl)-1H-pyrrolo[2,3-b]pyridin-5-yl)-2-(2-hydroxyethoxyl)phenyl)methanesulfonamide] the same measures were under 50 nM, 53% and 96%.
Regarding `Cc1nn(Cc2cccc(C#N)c2)c(C)c1-c1c[nH]c2ncc(-c3ccc(N4CCNCC4)cc3)cc12` [Example 48, 3-((3,5-dimethyl-4-(5-(4-(piperazin-1-yl)phenyl)-1H-pyrrolo[2,3-b]pyridin-3-yl)-1H-pyrazol-1-yl)methyl)benzonitrile hydrochloride], the IC50 lay in the range of 50 to 250 nM, the inhibition at 0.1 µM came to 52% and the inhibition at 1 µM was 83%.
For the molecule `COc1cc(-c2cnc3[nH]cc(-c4c(C)nn(Cc5cc(F)cc(F)c5)c4C)c3c2)cnc1N` [Example 177, 5-(3-(1-(3,5-difluorobenzyl)-3,5-dimethyl-1H-pyrazol-4-yl)-1H-pyrrolo[2,3-b]pyridin-5-yl)-3-methoxypyridin-2-amine], the IC50 is under 50 nM, the inhibition at 0.1 µM was 96% and the inhibition at 1 µM was 100%.
Turning to `COc1ccc(-c2cnc3[nH]cc(-c4c(C)nn(Cc5cccc(F)c5)c4C)c3c2)cc1NS(C)(=O)=O` [Example 14, N-(5-(3-(1-(3-fluorobenzyl)-3,5-dimethyl-1H-pyrazol-4-yl)-1H-pyrrolo[2,3-b]pyridin-5-yl)-2-methoxyphenyl)methanesulfonamide], the IC50 was under 50 nM and the inhibition at 1 µM is 95%.
In the case of `CS(=O)(=O)Nc1cc(-c2cnc3[nH]cc(-c4ccn(Cc5cc(F)cc(F)c5)n4)c3c2)ccc1C1CCNCC1` [Example 176, N-(5-(3-(1-(3,5-difluorobenzyl)-1H-pyrazol-3-yl)-1H-pyrrolo[2,3-b]pyridin-5-yl)-2-(piperidin-4-yl)phenyl)methanesulfonamide], the IC50 was under 50 nM, the inhibition at 0.1 µM turned out to be 86% and the inhibition at 1 µM is 99%.

What is called IC50 is the midpoint of a concentration-inhibition curve. What is called inhibition is the percentage by which the read-out fell short of the control.

Values taken from US9353107B2 (Aurigene Discovery Technologies Limited, priority 2012, dated 2016).
